Assay results from patent US20240209376A1, “Specific Oligonucleotide-Programmed Readthrough of Nonsense Codons” (UNIVERSITY OF MASSACHUSETTS, priority 2021, published 2024).
Entries after “also recorded” stand apart in the source; their conditions may differ.

Legend:
[1] = tested on: CAN1-luc expression construct premature stop codon; test: CAN1-luc expression construct readthrough (rabbit reticulocyte lysate); assay type: biochemical; details: oligo at +8 position downstream of premature stop codon
Description: FIG. 4 illustrates one embodiment of a CAN1 arginine permease gene/luciferase expression construct (Can1-1uc). Upper panel: A schematic of the construct showing the relative position of a premature stop codon and a Can1 open reading frame and a luciferase gene with a natural terminal stop codon. Lower panel: A deoxyribonucleic acid sequence of the Can1-1uc construct with a TGA premature stop codon and a deoxyribonucleic acid oligo hybridized to the Can1-1uc construct at the +8 nucleotide position downstream of the premature stop codon.
FIG. 5 presents exemplary data showing readthrough of a CAN1-1uc expression construct premature stop codon with a DNA oligo hybridized at the +8 nucleotide position downstream of the premature stop codon.
The DNA antisense oligos contemplated herein were validated using a DNA expression construct comprising a premature stop codon and a luciferase gene. The basic methodology was used a CAN1 gene expression construct encoding an arginine permease amino acid transporter protein. The CAN1 expression construct positions a […] premature stop codon at the terminus of the CAN1 open reading frame subsequently followed by a luciferase open reading frame. See, FIG. 4. The DNA antisense oligo +8(70) having the nucleic acid sequence of 5′-[…]-3′ was then positioned at the +8 nucleic acid position downstream of the first nucleotide of the premature stop codon. […]

[2] = tested on: CFTR premature stop codon (G542X; UGAC, UGAG) mRNA; test: 511-565 CFTR nanoluciferase construct readthrough (RRL assay); assay type: biochemical; details: for readthrough promotion by fluoride-modified oligos: RRL assay
Description: (§1) FIG. 6 presents one embodiment of a cystic fibrosis gene/nanoluciferase expression construct (511-565 CFTR). Upper panel: A schematic of the construct showing the relative position of a premature stop codon (UGAG or UGAC) within a cystic fibrosis open reading frame (CFTR) and a luciferase gene with a natural terminal stop codon. Lower panel: A deoxyribonucleic acid sequence of the CFTR construct with a TGA premature stop codon and a deoxyribonucleic acid oligo hybridized to the CFTR construct at the +8 nucleotide position downstream of the premature stop codon.
In one embodiment, the present invention contemplates a modified cystic fibrosis transmembrane conductance regulator (CFTR) deoxyribonucleic acid (DNA) construct. In one embodiment, the modified CFTR DNA construct comprises a CFTR open reading frame comprising a premature TGA stop codon. In one embodiment, the TGA premature stop codon is a G542X mutation. In one embodiment, the modified CFTR DNA construct further comprises a nanoluciferase gene and a natural stop codon. In one embodiment, the modified CFTR mRNA construct molecule is hybridized to a single stranded DNA antisense oligo at the +8 nucleotide position downstream of a TGA premature stop codon. In one embodiment, the DNA antisense oligo is 5′-[…]-3′. See, FIG. 6.
(§2) A 511-565 CFTR DNA expression vector construct was designed with several different codon configurations: i) a single wild type sense codon (“GGAG”) and a subsequent wild-type stop codon; ii) a premature stop codon “TGAG” comprising a G542X mutation (e.g., a strong stop codon); and iii) a premature stop codon “TGAC” comprising a G542X mutation (a weak stop codon) rendering an artificial readthrough-prone context. […] See, FIG. 7.

[3] = tested on: CFTR wild type construct without premature stop codon (GGAG); test: 511-565 CFTR nanoluciferase construct expression, wild type; assay type: biochemical; details: increasing G418 concentrations
Description: as §1
FIG. 8 presents exemplary data showing the effect of the aminoglycoside G418 on 511-565 CFTR construct expression.
as §2

[4] = tested on: CFTR mRNA levels (NMD-mediator SMG1); test: mRNA analysis by qPCR in CFF-16HBEge cell lines; assay type: cell-based
Description: The example presents the results of mRNA analysis by quantitative polymerase chain reaction and (qPCR) and protein analysis by Western Blot.

[5] = cited from earlier work
[6] = experimental data; cited from earlier work

5′-GCGCCGGGCCTTTCTTTATGTTTTTGGCGT-3′ (DNA, backbone and methylation of C not given here) [+8(70), DNA antisense oligo at +8 position of CAN1-luc construct]
readthrough of premature stop codon in CAN1-luc construct [1]: increases readthrough of a premature stop codon

CN[C@@H]1[C@@H](O)[C@@H](O[C@H]2[C@H](O)[C@@H](O[C@H]3O[C@H]([C@H](C)O)[C@@H](O)[C@H](O)[C@H]3N)[C@H](N)C[C@@H]2N)OC[C@]1(C)O [G418]
premature stop codon readthrough, G418 alone ([2]; UGAG and UGAC constructs, increasing G418 concentrations): promotes premature stop codon (UGAG and UGAC) readthrough in a concentration-dependent manner; also recorded: increasing expression of premature stop codon constructs | readthrough rate at 0.5 μM and 0.1 μM G418 versus 1 μM G418 ([2]; weak (UGAC) and strong (UGAG) premature codon, +8(66) combination experiment (FIG. 9)): significantly higher readthrough rate | wild type sense codon (GGAG) construct expression, G418 alone [3]: inhibits wild type sense codon (GGAG) readthrough in a concentration-dependent manner; also recorded: decreases the expression of wild type construct

CCN(CC)S(=O)(=O)c1cc(Nc2nccc(-c3ccnc(-c4ccc(NC(=O)NC)cc4)c3)n2)ccc1Cl [SMG1i]
CFTR WT mRNA [4]: smaller increase | mRNA levels of the PTC alleles [4]: restores mRNA levels of the PTC alleles

NC[C@H]1O[C@H](O[C@H]2[C@H](O)[C@@H](O[C@H]3O[C@H](CO)[C@@H](O)[C@H](N)[C@H]3O)[C@H](N)C[C@@H]2N)[C@H](N)C[C@@H]1O [tobramycin]
rise in NAG, once daily arm less than three times daily regimen ([5]; adults and children): 33% | elimination rate, once daily versus three times daily group ([5]; once daily group mostly dosed in the evening): lower elimination rate | serum creatinine level during the course of treatment ([5]; paediatric group, single daily dose, compared with a rise with three divided doses): decreased | efficacy, single daily versus multiple daily dosing regimen ([5]; patients with CF): equal efficacy

TCCACTCAGTGTGATTCCAC^F (2'-fluoro at 20, other sugars and backbone not given here; one 2'-fluoro at 3'-terminal nucleotide) [+8(47) oligo withone 2′-fluoride modification]
readthrough promotion by fluoride-modified oligos [2]: promote readthrough in an RRL assay with improved stability and/or efficiency

U^FCCAC^FTCAG^FTGTG^FATTC^FCAC^F
readthrough promotion by fluoride-modified oligos [2]: promote readthrough in an RRL assay with improved stability and/or efficiency

gentamicin
relative toxicity among aminoglycosides [6]: more toxic than tobramycin and amikacin
